Measurements as given in patent US20200062712A1, “ALDEHYDE TRAPPING COMPOUNDS AND USES THEREOF” (Aldeyra Therapeutics, Inc., priority 2016, published 2020).

Columns and labels:
[1] = Rate of formation of aldehyde (4-HNE) adducts, HPLC product peak over time; details: for Formation of Product 7 Hours (ranking, most effective to least) / Formation of Product 23 Hours (ranking, most effective to least): rank 1 = most effective; for Gradient (rate of product peak increase, formation of aldehyde adduct): best fit line
Method: It is not possible to conclude if this is the result of poor dissociation (from cyclodextrin) or poor interaction with the aldehyde. Best fit lines over this period give excellent fit to data. […] It can be used to relatively rank each of the samples examined, including NS2. The data were first evaluated over a 7 h time window.
Similar results were obtained when the window was extended to 23 h. However, two of the compounds yielded lower R. Sq. values in this context.
During this time period 3 of the 5 samples reached equilibrium.

[2] = Consumption of 4-HNE over time, HPLC at 254 nm; details: for Consumption of 4-HNE 7 Hours (ranking, most effective to least): rank 1 = most effective; for Consumption of 4-HNE 23 Hours (ranking, most effective to least): small differences between samples ranking 1-4, essentially identical; for Decrease in HNE versus corresponding increase in adduct: one-week time period
Source text: Five of 6 samples show consumption of 4-HNE. One sample (2-(3-aminoquinolin-2-yl)propan-2-ol) overlaps the 4-HNE HPLC peak using the current method. Best fit lines over this period give poorer fit to data than product formation data. Rate of 4-HNE consumption can be used as an approximation of binding kinetics.
The samples appeared to reach equilibrium, with the ongoing decrease in HNE amounts possibly due to another degradative pathway.

[3] = Formation of 4-HNE adduct with exemplary compounds (AUC of adduct over time); details: one equivalent of 4-HNE and 2 equivalents of compound; performed twice
Method: The ability of exemplary compounds to react with 4-HNE and form the corresponding adduct was measured. All compounds were analyzed by HPLC at 254 nm for their purity prior to the reaction.
Area under the curve (AUC) of each adduct was plotted over time.

abcr−/− knockout mice = format: in vivo; details: 10 mg/kg IP daily for 56 days, p=0.011
Method: This experiment is designed to establish proof of concept that chronic intraperitoneal administration of a RAL-trap compound lowers the accumulation rate of A2E in B6:129SvEv-Abcr (abcr−/−) mice.
The study was performed with B6:129SvEv-Abcr (abcr−/−) mice. Treatment groups included 24 mice (males and females) per treatment condition. Each animal was treated with one of the following conditions: • Control: a commercially available compound known clinically to modulate retinal function in humans and known experimentally to form a Schiff base adduct with free RAL, both in vitro and in vivo in animal models. • Vehicle • Compound • Untreated
A third group of animals served as untreated controls and were sacrificed on Day 1 of the study.
The experiments described herein used a variety of biology and biochemistry services. If necessary, non-toxic doses of compounds of the invention, formulated for treatment with an eye drop or other formations, may be established, e.g., in the rabbit with an ocular irritation protocol. […] Light responses were characterized by ERG (Weng, et al., Cell 98:13, 1999). Intracellular A2E concentration of retinal RPE cell extracts were measured using an analytical method such as those described by Karan et al., 2005; Radu et al., 2003; and Parish et al., PNAS 95:14609, 1998.

[4] = system: brain slices of B6.129-Aldh5a1tm1Kmg/J (SSADH null) mice; test: Ex vivo SSADH study: GABA and GHB content of brain slices and incubation media by HPLC; format: cell-based; details: 100 μg/mL, 24 hours incubation; SSADH null mouse brain slices
Method: Three and one half (3.5) days after birth, B6.129-Aldh5a1^tm1Kmg/J (SSADH null) mice and wild type (wt) littermates animals were sacrificed and brains were harvested. […] Brain slices and the incubation media (sup) were then analyzed by HPLC for GHB and GABA content.

[5] = 7 h time window, samples in cyclodextrin

For `CC(C)(O)c1nc2cc(Cl)ccc2cc1N` [Compound I-3, 2-(3-amino-7-chloroquinolin-2-yl)propan-2-ol], the “Formation of Product 7 Hours (ranking, most effective to least)” value (from here on “Formation of Product 7 Hours”) [1] was 3, the “Formation of Product 23 Hours (ranking, most effective to least)” value (shortened to “Formation of Product 23 Hours”) [1] was 3 and the “Gradient (rate of product peak increase, formation of aldehyde adduct)” value [1, 5] was “(Gradient 2.02, R”. The “Gradient (rate of product peak increase, formation of aldehyde adduct)” value ([1]; window extended to 23 h) was “(Gradient 1.21, R”, the “Consumption of 4-HNE 7 Hours (ranking, most effective to least)” value (“Consumption of 4-HNE 7 Hours” for short) [2] was 2 and the “Consumption of 4-HNE 23 Hours (ranking, most effective to least)” value (shortened to “Consumption of 4-HNE 23 Hours”) [2] was 1. For the same molecule, the “Gradient (rate of 4-HNE consumption)” value ([2]; 23 h) was “(Gradient −0.05, R”, the “Gradient (rate of 4-HNE consumption)” value ([2]; first 7 h, analysis at 254 nm) was “(Gradient −0.06, R” and the “Decrease in HNE versus corresponding increase in adduct” value [2] was “decrease in HNE is greater than the corresponding increase in adduct”.
For `CC(C)(O)c1nc2ccc(Cl)cc2cc1N` [NS2, 2-(3-amino-6-chloroquinolin-2-yl)propan-2-ol, reference compound], the “Formation of the corresponding adduct with 4-HNE” value [3] was “formed the corresponding adduct with 4-HNE”, the “Formation of Product 7 Hours” value [1] was 2 and the “Formation of Product 23 Hours” value [1] was 2. The “Gradient (rate of product peak increase, formation of aldehyde adduct)” value [1, 5] was “(Gradient 2.22, R”, the “Gradient (rate of product peak increase, formation of aldehyde adduct)” value ([1]; window extended to 23 h) was “(Gradient 1.33, R” and the “Consumption of 4-HNE 7 Hours” value [2] was 1. For the same molecule, the “Consumption of 4-HNE 23 Hours” value [2] was 3, the “Gradient (rate of 4-HNE consumption)” value ([2]; 23 h) was “(Gradient −0.04, R” and the “Gradient (rate of 4-HNE consumption)” value ([2]; first 7 h, analysis at 254 nm) was “(Gradient −0.15, R”. The “Reduction of formation of A2E compared with vehicle-treated controls” value (abcr−/− knockout mice) was 71%, the “GABA content compared to the controls” value [4] was “decreased” and the “GHB content compared to the controls” value [4] was “decreased”.
With `CC(C)(O)c1nc2c(Cl)cccc2cc1N` [Compound I-4, 2-(3-amino-8-chloroquinolin-2-yl)propan-2-ol] the “Formation of Product 7 Hours” value [1] was 5, the “Formation of Product 23 Hours” value [1] was 5 and the “Gradient (rate of product peak increase, formation of aldehyde adduct)” value [1, 5] was “(Gradient 1.18, R”. The “Gradient (rate of product peak increase, formation of aldehyde adduct)” value ([1]; window extended to 23 h) was “(Gradient 0.81, R”, the “Consumption of 4-HNE 7 Hours” value [2] was 5 and the “Consumption of 4-HNE 23 Hours” value [2] was 5. The “Gradient (rate of 4-HNE consumption)” value ([2]; 23 h) was “(Gradient −0.02, R”, the “Gradient (rate of 4-HNE consumption)” value ([2]; first 7 h, analysis at 254 nm) was “(Gradient −0.01, R” and the “Decrease in HNE versus corresponding increase in adduct” value [2] was “decrease in HNE is greater than the corresponding increase in adduct”.
With `CC(C)(O)c1nc2ccccc2cc1N` [Compound I-1, 2-(3-aminoquinolin-2-yl)propan-2-ol] the “Formation of the corresponding adduct with 4-HNE” value [3] was “formed the corresponding adduct with 4-HNE”, the “Formation of Product 7 Hours” value [1] was 1 and the “Formation of Product 23 Hours” value [1] was 1. The “Gradient (rate of product peak increase, formation of aldehyde adduct)” value [1, 5] was “(Gradient 3.68, R”, the “Gradient (rate of product peak increase, formation of aldehyde adduct)” value ([1]; window extended to 23 h) was “(Gradient 1.99, R” and the “GABA content compared to the controls” value [4] was “decreased”. For the same molecule, the “GHB content compared to the controls” value [4] was “decreased”.
With `CC(C)(O)c1nc2ccc(Br)cc2cc1N` [Compound I-5, 2-(3-amino-6-bromoquinolin-2-yl)propan-2-ol] the “Formation of Product 7 Hours” value [1] was 4, the “Formation of Product 23 Hours” value [1] was 4 and the “Gradient (rate of product peak increase, formation of aldehyde adduct)” value [1, 5] was “(Gradient 1.63, R”. The “Gradient (rate of product peak increase, formation of aldehyde adduct)” value ([1]; window extended to 23 h) was “(Gradient 1.16, R”, the “Consumption of 4-HNE 7 Hours” value [2] was 4 and the “Consumption of 4-HNE 23 Hours” value [2] was 4. The “Gradient (rate of 4-HNE consumption)” value ([2]; 23 h) was “(Gradient −0.04, R” and the “Gradient (rate of 4-HNE consumption)” value ([2]; first 7 h, analysis at 254 nm) was “(Gradient −0.04, R”.
For `CC(C)(O)c1nc2cccc(Cl)c2cc1N` [Compound I-2, 2-(3-amino-5-chloroquinolin-2yl)propan-2-ol], the “Formation of Product 7 Hours” value [1] was 6, the “Formation of Product 23 Hours” value [1] was 6 and the “Gradient (rate of product peak increase, formation of aldehyde adduct)” value [1, 5] was “(Gradient 0.86, R”. For the same molecule, the “Gradient (rate of product peak increase, formation of aldehyde adduct)” value ([1]; window extended to 23 h) was “(Gradient 0.44, R”, the “Consumption of 4-HNE 7 Hours” value [2] was 3 and the “Consumption of 4-HNE 23 Hours” value [2] was 2. For the same molecule, the “Gradient (rate of 4-HNE consumption)” value ([2]; 23 h) was “(Gradient −0.04, R” and the “Gradient (rate of 4-HNE consumption)” value ([2]; first 7 h, analysis at 254 nm) was “(Gradient −0.05, R”.
